Columns and labels:
IL-10 = assay: MSU-induced IL-10 in knee joint tissue (multiplex microassay); type: in vivo, mouse; settings: 2,4-D 100 mg/kg, DEX 0.5 mg/kg
Experimental: (§1) Mice (six per group) were treated with 2,4-D (100 mg/kg or 20 mg/kg, i.p.), CLC (1 mg/kg or 0.2 mg/kg, i.p.), DEX (0.5 mg/kg or 0.1 mg/kg, i.p.), or vehicle (20% polyoxyethylenesorbitan monooleate (Tween 80) plus PBS) 30 min before intra-articular stimulus with MSU (100 μg/10 μL, i.a.). Six mice with intra-articular injection with PBS alone served as a negative control.
(§2) Induction of MSU-Induced Knee Joint Inflammation. Male ICR (CD-1) mice (35-45 g, 10-12 weeks) were purchased from VitalRiver Inc (Beijing, China) and were kept in an animal care facility under controlled temperature of 21±1° C., humidity, and on a light/dark cycle, with ad libitum access to water and standard laboratory chow diet. Animal care and handling procedures were approved by the Animal Ethics Committee of GZUCM (Guangzhou University of Chinese Medicine). All efforts were made to minimize animal suffering and to reduce the number of animals used. Joint inflammation was induced by the intra-articular (i.a.) administration of MSU (200 μg/20 μl) into the right and left knee joints of mice under inhaled 3% isoflurane anesthesia. Control animals received an injection (i.a.) of sterile PBS (20 μL).
(§3) Cytokine Measurement. Mice were anesthetized and sacrificed. Knee joints were collected and frozen in liquid nitrogen. Samples were then homogenized in 500 μl of buffer containing protease inhibitors, centrifuged (3600 rpm, 4° C., 15 min) and supernatants were used to determine Th1/Th2/Th17 cytokine levels using a multiplex microassay (Qantibody® mouse TH17 Array 1 kit, Cat. No.: QAM-TH17-1; RayBiotech, Norcross, GA). Results were expressed as picograms (pg) of cytokine/mg of tissue.
(§4) Statistical Analysis. […] For in vitro experiments, microassays were performed in quadruplicate. p<0.05 was considered significant (*p<0.05, **p<0.01, ***p<0.001).

Solubility in water = type: physicochemical
IL-23 = IL-23 gene expression in RA-patient synovial cells (RT-qPCR); type: cell-based, human; settings: 2 h
Experimental: Synovial fluid was freshly collected from 20 patients with rheumatoid arthritis (RA) by arthrocentesis. At two hours after treatment or not with 2,4-D, RA-patient synovial cells were directly lysed using TRIzol reagent (Invitrogen, USA) followed by RNA extraction according to the manufacturer's protocol. Finally, RNA was dissolved in 10 μL DEPC-treated water, quantified on a NanoDrop 2000 spectrophotometer (Thermo Scientific Inc., USA), and reverse-transcribed using the Super Script III First-Strand Synthesis System for RT-PCR kit (Thermo Scientific, USA) according to the manufacturer's protocol. PCR was performed in duplicate using SYBR Green qPCR master mix (Takara Biomedical Technology Co., Ltd, Dalian, China) on an ABI 7500 Real-Time PCR System (Thermo, USA). The cycling program was as follows: denaturation at 95° C. for 15 s, 40 cycles of 95° C. for 15 s and extension at 60° C. for 60 s, followed by melt curve generation. The ΔΔCT method was used to quantify relative mRNA levels as described in Example 1 above. The primer sequences specific for human IL-17 genes (hu-IL-17 Forward: 5′-[…]-3′; hu-IL-17 Reverse: 5′-GGCACTTTGCCTCCCAGAT-3′) (SEQ ID NOs 8 and 9, respectively) and IL-23 (see Example 1, above) were used.

TNF-alpha = assay: MSU-induced TNF-alpha in knee joint tissue (multiplex microassay); type: in vivo, mouse; settings: 2,4-D 100 mg/kg, CLC 1 mg/kg, DEX 0.5 mg/kg
Experimental: as §1, §2, §3, §4

[1] = system: laser-induced choroidal neovascularization (CNV); assay: Laser-induced CNV in rats, CNV surface on lectin-labelled RPE-choroid flat-mounts; type: in vivo, rat; settings: intravitreous injection
Experimental: Animals. All experiments were performed in accordance with the European Communities Council Directive 86/609/EEC and approved by local ethical committees (#2541-2015110210279792 v3). Six- to eight-week-old male Long Evans rats from the Janvier Breeding Center (Le Genest-Saint-Isle, France) were used to create a rat model of choroidal neovascularization (CNV) used as a model of human wet macular degeneration. Laser-induced CNV. After anesthesia and dilation of the pupils, coverslips were positioned on the cornea as a contact glass. […] Animals were sacrificed at 7 days (n=6 per group- and at 16 days (n=6 per group). RPE-choroid flat-mounts and CNV quantifications. Two days after FA examination (time necessary for fluorescein elimination), eyes were enucleated, fixed in 4% PFA for 15 min at room temperature and sectioned at the limbus; the cornea and lens were discarded. The retina was separated from the RPE-choroid complex. Eight radial incisions were made on the RPE-choroid, which was then flat-mounted and post-fixed with acetone for 15 min at −20° C. After washing with 0.1% Triton x100 in PBS, FITC-GSL I-Isolectin B4 (1:200, Vector, AbCys, Paris, France) was applied over night at […] Images of the CNV were captured with a digital video camera coupled to a computer system on an Olympus fluorescence microscope. […]

IL-1ß = assay: MSU-induced IL-1ß in knee joint tissue (multiplex microassay); type: in vivo, mouse; settings: 2,4-D 100 mg/kg, CLC 1 mg/kg, DEX 0.5 mg/kg
Experimental: as §1, §2, §3, §4

COc1cc(O)c(OC)c(O)c1C(=O)/C=C/c1ccccc1 [2,4-D, 2′,4′-dihydroxy-3′,6′-dimethoxychalcone]
decrease of IL-10 in knee joint tissue (IL-10): 1.7 fold | solubility in water (Solubility in water): Low solubility | decrease of IL-23 expression (IL-23; 1 μg/ml): 8 fold | inhibition of IL-23 expression (IL-23; 5 μg/ml): 65 fold | decrease of TNF-alpha in knee joint tissue (TNF-alpha): 1.9 fold | CNV size (surface of lectin positive labelling) [1]: significantly reduced | decrease of IL-1ß in knee joint tissue (IL-1ß): 5.3 fold
